IC50 data for 63 molecules are collected here from patent US20060252807A1, “Novel ortho-terphenyl inhibitors of p38 kinase and methods of treating inflammatory disorders” (Kalypsys, Inc., priority 2005, published 2006).

SMILES strings stand for the structures.

The test concerns the target T1, active p38 alpha enzyme (Upstate Biotechnology) (Homo sapiens, UniProt Q16539).
T1 construct: purchased Upstate Biotechnology
The experiment in a line: p38α biochemical assay (ATP turnover, luminescent detection, Cambrex PKlight). To be noted: p38α biochemical assay, Table 1 Biological Activity. A digest of the protocol: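 In this kinase reaction, p38α used MapkapK2 as phosphorylation substrate at low ATP (1.4 uM final) over 2 hours at 30C, and activity was followed as ATP turnover by luminescence.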

T1 sequence (Q16539 whole entry): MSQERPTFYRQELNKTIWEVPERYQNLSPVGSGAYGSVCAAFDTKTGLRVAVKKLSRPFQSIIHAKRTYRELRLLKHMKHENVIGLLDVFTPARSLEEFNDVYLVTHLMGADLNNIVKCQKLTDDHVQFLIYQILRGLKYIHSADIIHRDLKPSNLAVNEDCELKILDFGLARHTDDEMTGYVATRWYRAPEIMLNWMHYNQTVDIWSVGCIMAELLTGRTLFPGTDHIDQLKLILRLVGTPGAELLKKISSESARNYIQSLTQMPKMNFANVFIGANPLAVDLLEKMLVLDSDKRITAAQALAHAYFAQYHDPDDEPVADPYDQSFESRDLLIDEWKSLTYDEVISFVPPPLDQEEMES

In general, IC50 refers to the point on the concentration scale where inhibition reaches its midpoint. A low value points to greater potency in that assay. As for `CC(C)NC(=O)c1csc(-c2c(-c3ccc(F)cc3)noc2CNC(=O)/C=C/c2ccccc2F)n1` [Example 653], the IC50 is at most 1000 nM.

`CCOc1ccccc1C(=O)NCc1onc(-c2ccc(F)cc2)c1-c1nc(C(=O)NC(C)C)cs1` [Example 654] displayed an IC50 above 1000 nM.

`Cc1ccccc1OCC(=O)NCc1onc(-c2ccc(F)cc2)c1-c1nc(C(=O)NC(C)C)cs1` [Example 655] came in with a concentration for half-maximal inhibition (IC50) above 1000 nM.

The molecule `CC(C)NC(=O)c1csc(-c2c(-c3ccc(F)cc3)noc2CNC(=O)CCc2ccccc2O)n1` [Example 656] displayed an IC50 above 1000 nM.

Regarding `COc1ccccc1CC(=O)NCc1onc(-c2ccc(F)cc2)c1-c1nc(C(=O)NC(C)C)cs1` [Example 657], the IC50 was above 1000 nM.

Molecule `CC(C)NC(=O)c1csc(-c2c(-c3ccc(F)cc3)noc2CNC(=O)C(C)c2ccc(O)cc2)n1` (stereo not drawn) [Example 658] registered an IC50 above 1000 nM.

With `CC(C)NC(=O)c1csc(-c2c(-c3ccc(F)cc3)noc2CNC(=O)c2ccccc2[N+](=O)[O-])n1` [Example 659], the IC50 was above 1000 nM.

In turn, `CC(C)NC(=O)c1csc(-c2c(-c3ccc(F)cc3)noc2CNC(=O)c2cccc([N+](=O)[O-])c2)n1` [Example 660] displayed an IC50 above 1000 nM.

On to `COc1cccc(O)c1C(=O)NCc1onc(-c2ccc(F)cc2)c1-c1nc(C(=O)NC(C)C)cs1` [Example 661], for which the IC50 is above 1000 nM.

In turn, `COc1ccc(O)c(C(=O)NCc2onc(-c3ccc(F)cc3)c2-c2nc(C(=O)NC(C)C)cs2)c1` [Example 662] showed an IC50 above 1000 nM.

With `COc1ccc(C(=O)NCc2onc(-c3ccc(F)cc3)c2-c2nc(C(=O)NC(C)C)cs2)c(O)c1` [Example 663], the IC50 is above 1000 nM.

For `COc1ccc(C(=O)NCc2onc(-c3ccc(F)cc3)c2-c2nc(C(=O)NC(C)C)cs2)cc1O` [Example 664], the IC50 is above 1000 nM.

In turn, `CC(C)NC(=O)c1csc(-c2c(-c3ccc(F)cc3)noc2CNC(=O)c2cc(O)c(O)c(O)c2)n1` [Example 665] registered an IC50 above 1000 nM.

`CC(C)NC(=O)c1csc(-c2c(-c3ccc(F)cc3)noc2CNC(=O)Cc2ccc(O)c(F)c2)n1` [Example 666] displayed an IC50 above 1000 nM.

In turn, `Cc1cc(C(=O)NCc2onc(-c3ccc(F)cc3)c2-c2nc(C(=O)NC(C)C)cs2)cc(Cl)n1` [Example 667] returned an IC50 above 1000 nM.

With `CC(C)NC(=O)c1csc(-c2c(-c3ccc(F)cc3)noc2CNC(=O)Cc2c(F)cccc2F)n1` [Example 668], the IC50 was above 1000 nM.

Turning to `CC(C)NC(=O)c1csc(-c2c(-c3ccc(F)cc3)noc2CNC(=O)c2cccc3ccccc23)n1` [Example 669], the IC50 was at most 1000 nM.

Regarding `CC(C)NC(=O)c1csc(-c2c(-c3ccc(F)cc3)noc2CNC(=O)c2ccc(Cl)cc2O)n1` [Example 670], the IC50 is above 1000 nM.

For the molecule `CC(C)NC(=O)c1csc(-c2c(-c3ccc(F)cc3)noc2CNC(=O)c2cc(Cl)ccc2O)n1` [Example 671], the IC50 is above 1000 nM.

With `CC(C)NC(=O)c1csc(-c2c(-c3ccc(F)cc3)noc2CNC(=O)c2ccc3ncccc3c2)n1` [Example 672], the IC50 was above 1000 nM.

With `CC(C)NC(=O)c1csc(-c2c(-c3ccc(F)cc3)noc2CNC(=O)c2cnc(O)c(Cl)c2)n1` [Example 673], the concentration for half-maximal inhibition (IC50) was above 1000 nM.

`CC(C)NC(=O)c1csc(-c2c(-c3ccc(F)cc3)noc2CNC(=O)c2ccc(F)cc2Cl)n1` [Example 674] came in with an IC50 above 1000 nM.

In turn, `CC(C)NC(=O)c1csc(-c2c(-c3ccc(F)cc3)noc2CNC(=O)c2c(F)cccc2Cl)n1` [Example 675] came in with an IC50 above 1000 nM.

Turning to `CC(C)NC(=O)c1csc(-c2c(-c3ccc(F)cc3)noc2CNC(=O)CNC(=O)OC(C)(C)C)n1` [Example 676], the IC50 is above 1000 nM.

The molecule `Cc1c(C(=O)NCc2onc(-c3ccc(F)cc3)c2-c2nc(C(=O)NC(C)C)cs2)oc2ccccc12` [Example 677] had an IC50 above 1000 nM.

In the case of `CC(C)NC(=O)c1csc(-c2c(-c3ccc(F)cc3)noc2CNC(=O)CC2Cc3ccccc3C2)n1` [Example 678], the IC50 is above 1000 nM.

On to `CC(C)NC(=O)c1csc(-c2c(-c3ccc(F)cc3)noc2CNC(=O)C2CCc3ccccc3C2)n1` (stereo not drawn) [Example 679], for which the IC50 is above 1000 nM.

With `COc1ccccc1/C=C/C(=O)NCc1onc(-c2ccc(F)cc2)c1-c1nc(C(=O)NC(C)C)cs1` [Example 680], the IC50 was above 1000 nM.

`CC(C)NC(=O)c1csc(-c2c(-c3ccc(F)cc3)noc2CNC(=O)c2csc3ccccc23)n1` [Example 681] came in with an IC50 above 1000 nM.

Take `CC(C)NC(=O)c1csc(-c2c(-c3ccc(F)cc3)noc2CNC(=O)c2cc3ccccc3s2)n1` [Example 682]: the IC50 is above 1000 nM.

With `CCCCc1ccc(C(=O)NCc2onc(-c3ccc(F)cc3)c2-c2nc(C(=O)NC(C)C)cs2)cc1` [Example 683], the IC50 is above 1000 nM.

The molecule `CC(C)NC(=O)c1csc(-c2c(-c3ccc(F)cc3)noc2CNC(=O)c2ccc(C(C)(C)C)cc2)n1` [Example 684] came in with an IC50 above 1000 nM.

With `CC(C)NC(=O)c1csc(-c2c(-c3ccc(F)cc3)noc2CNC(=O)c2ccc(N(C)C=O)cc2)n1` [Example 685], the IC50 is above 1000 nM.

In turn, `CC(=O)Nc1cccc(C(=O)NCc2onc(-c3ccc(F)cc3)c2-c2nc(C(=O)NC(C)C)cs2)c1` [Example 686] returned an IC50 above 1000 nM.

Molecule `CC(C)NC(=O)c1csc(-c2c(-c3ccc(F)cc3)noc2CNC(=O)COc2ccccc2C=O)n1` [Example 687] yielded an IC50 above 1000 nM.

Take `CC(=O)Oc1ccc(C(=O)NCc2onc(-c3ccc(F)cc3)c2-c2nc(C(=O)NC(C)C)cs2)cc1` [Example 688]: the IC50 is above 1000 nM.

Consider `COC(=O)c1ccc(C(=O)NCc2onc(-c3ccc(F)cc3)c2-c2nc(C(=O)NC(C)C)cs2)cc1` [Example 689], for which the IC50 was above 1000 nM.

Turning to `CC(=O)Oc1cccc(C(=O)NCc2onc(-c3ccc(F)cc3)c2-c2nc(C(=O)NC(C)C)cs2)c1` [Example 690], the IC50 was above 1000 nM.

`CC(=O)Oc1ccccc1C(=O)NCc1onc(-c2ccc(F)cc2)c1-c1nc(C(=O)NC(C)C)cs1` [Example 691]: the IC50 is at most 1000 nM.

Molecule `CC(C)NC(=O)c1csc(-c2c(-c3ccc(F)cc3)noc2CNC(=O)Cc2ccc3c(c2)OCO3)n1` [Example 692] had an IC50 above 1000 nM.

`CCCOc1ccc(C(=O)NCc2onc(-c3ccc(F)cc3)c2-c2nc(C(=O)NC(C)C)cs2)cc1` [Example 693]: the IC50 was above 1000 nM.

The molecule `CC(C)NC(=O)c1csc(-c2c(-c3ccc(F)cc3)noc2CNC(=O)c2ccc(OC(C)C)cc2)n1` [Example 694] yielded an IC50 above 1000 nM.

As to `Cc1cccc([N+](=O)[O-])c1C(=O)NCc1onc(-c2ccc(F)cc2)c1-c1nc(C(=O)NC(C)C)cs1` [Example 695], the IC50 is above 1000 nM.

`Cc1cccc(C(=O)NCc2onc(-c3ccc(F)cc3)c2-c2nc(C(=O)NC(C)C)cs2)c1[N+](=O)[O-]` [Example 696] showed a half-maximal inhibitory concentration (IC50) above 1000 nM.

Take `Cc1ccc([N+](=O)[O-])c(C(=O)NCc2onc(-c3ccc(F)cc3)c2-c2nc(C(=O)NC(C)C)cs2)c1` [Example 697]: the IC50 is at most 1000 nM.

`Cc1c(C(=O)NCc2onc(-c3ccc(F)cc3)c2-c2nc(C(=O)NC(C)C)cs2)cccc1[N+](=O)[O-]` [Example 698] returned a 50% inhibitory concentration (IC50) above 1000 nM.

Take `COc1ccc(OC)c(C(=O)NCc2onc(-c3ccc(F)cc3)c2-c2nc(C(=O)NC(C)C)cs2)c1` [Example 699]: the IC50 was above 1000 nM.

Regarding `COc1ccc(C(=O)NCc2onc(-c3ccc(F)cc3)c2-c2nc(C(=O)NC(C)C)cs2)c(OC)c1` [Example 700], the IC50 is above 1000 nM.

`COc1cccc(OC)c1C(=O)NCc1onc(-c2ccc(F)cc2)c1-c1nc(C(=O)NC(C)C)cs1` [Example 701] gave an IC50 above 1000 nM.

Take `COc1cc(OC)cc(C(=O)NCc2onc(-c3ccc(F)cc3)c2-c2nc(C(=O)NC(C)C)cs2)c1` [Example 702]: the IC50 was above 1000 nM.

Regarding `COc1cccc(C(=O)NCc2onc(-c3ccc(F)cc3)c2-c2nc(C(=O)NC(C)C)cs2)c1OC` [Example 703], the IC50 was above 1000 nM.

Take `Cc1ccc(SCC(=O)NCc2onc(-c3ccc(F)cc3)c2-c2nc(C(=O)NC(C)C)cs2)cc1` [Example 704]: the IC50 was above 1000 nM.

`CC(C)NC(=O)c1csc(-c2c(-c3ccc(F)cc3)noc2CNC(=O)/C=C/c2ccc(Cl)cc2)n1` [Example 705]: the IC50 was above 1000 nM.

With `CC(C)NC(=O)c1csc(-c2c(-c3ccc(F)cc3)noc2CNC(=O)/C=C/c2ccccc2Cl)n1` [Example 706], the IC50 was above 1000 nM.

Molecule `CC(C)NC(=O)c1csc(-c2c(-c3ccc(F)cc3)noc2CNC(=O)c2ccc([N+](=O)[O-])c(O)c2)n1` [Example 707] registered an IC50 above 1000 nM.

In turn, `CC(C)NC(=O)c1csc(-c2c(-c3ccc(F)cc3)noc2CNC(=O)c2cc(O)ccc2[N+](=O)[O-])n1` [Example 708] yielded an IC50 above 1000 nM.

In turn, `CC(C)NC(=O)c1csc(-c2c(-c3ccc(F)cc3)noc2CNC(=O)c2cc([N+](=O)[O-])ccc2O)n1` [Example 709] had an IC50 above 1000 nM.

With `CC(C)NC(=O)c1csc(-c2c(-c3ccc(F)cc3)noc2CNC(=O)c2cc([N+](=O)[O-])ccc2F)n1` [Example 710], the IC50 was above 1000 nM.

The molecule `CC(C)NC(=O)c1csc(-c2c(-c3ccc(F)cc3)noc2CNC(=O)c2cc(F)ccc2[N+](=O)[O-])n1` [Example 711] had an IC50 above 1000 nM.

The molecule `CC(C)NC(=O)c1csc(-c2c(-c3ccc(F)cc3)noc2CNC(=O)c2ccc(F)c([N+](=O)[O-])c2)n1` [Example 712] displayed an IC50 above 1000 nM.

As for `COc1ccc(Cl)cc1C(=O)NCc1onc(-c2ccc(F)cc2)c1-c1nc(C(=O)NC(C)C)cs1` [Example 713], the IC50 is above 1000 nM.

With `COc1cc(Cl)ccc1C(=O)NCc1onc(-c2ccc(F)cc2)c1-c1nc(C(=O)NC(C)C)cs1` [Example 714], the IC50 was above 1000 nM.

Molecule `CC(C)NC(=O)c1csc(-c2c(-c3ccc(F)cc3)noc2CNC(=O)Cc2ccc(O)c(Cl)c2)n1` [Example 715] registered an IC50 above 1000 nM.
